Measurements reported in patent US10010560B2, “Small molecule HSP70 inhibitors” (THE TRUSTEES OF THE UNIVERSITY OF PENNSYLVANIA, priority 2014, dated 2018).
Values joined by “and” are separate entries in the source; they are usually repeats but may differ in a detail not shown here. Equal entries are not always repeated.

Legend:
[1] = test system: melanoma tumor cell line WM989; assay: Combination with BRAF inhibitor Vemurafenib, viability; assay type: cell-based, human
Text: FIG. 6 is a line graph illustrating that PET-16 synergizes with the BRAF inhibitor Vemurafenib to reduce the viability of the melanoma tumor cell line WM989 (▪). WM989 cells treated singularly with Vemurafenib are depicted by (●). No synergy was detected between Vemurafenib and PES-Cl.

ADP-HSP70 (WT, aa 1-641) = target: T1, ADP-HSP70 (WT, aa 1-641) (Homo sapiens, UniProt P0DMV8, E110D); assay: ITC binding to ADP-bound full-length HSP70; settings: ITC, wild-type full-length ADP-bound HSP70
T1 construct: Full-length recombinant proteins of HSP70 (aa 1-641) as well as DnaK (aa 1-638); His6 (N); made in house; host or cells: E. coli BL21 Star (DE3)
T1 sequence (P0DMV8 whole entry E110D, the tested form may be a part): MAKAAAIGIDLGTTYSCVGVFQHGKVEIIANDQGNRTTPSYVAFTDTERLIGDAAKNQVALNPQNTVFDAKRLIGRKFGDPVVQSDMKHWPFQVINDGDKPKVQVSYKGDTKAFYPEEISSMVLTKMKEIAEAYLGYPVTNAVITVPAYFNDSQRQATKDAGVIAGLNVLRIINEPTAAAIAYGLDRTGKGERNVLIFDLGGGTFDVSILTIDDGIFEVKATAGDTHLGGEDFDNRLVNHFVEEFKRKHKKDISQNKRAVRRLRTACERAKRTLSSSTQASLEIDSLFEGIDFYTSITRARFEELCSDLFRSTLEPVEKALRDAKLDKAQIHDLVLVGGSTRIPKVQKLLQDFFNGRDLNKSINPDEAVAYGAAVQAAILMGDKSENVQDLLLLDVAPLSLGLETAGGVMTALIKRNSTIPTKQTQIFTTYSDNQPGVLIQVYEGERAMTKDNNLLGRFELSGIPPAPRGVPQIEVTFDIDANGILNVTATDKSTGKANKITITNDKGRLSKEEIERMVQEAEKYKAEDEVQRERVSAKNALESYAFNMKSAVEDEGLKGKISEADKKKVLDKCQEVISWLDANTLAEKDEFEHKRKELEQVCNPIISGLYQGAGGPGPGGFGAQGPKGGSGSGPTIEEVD
Text: The human stress-inducible HSP70 (residues 1-641 or 386-616 of SEQ ID NO: 2) and E. coli DnaK (residues 1-638, 389-607, or 393-507 of SEQ ID NO: 4) were cloned into the pET25 vector (EMD Millipore Chemicals, Inc., Billerica, Mass., USA) between the NdeI and XhoI restriction sites. The full-length HSP70 and DnaK mutants were constructed by PCR-based site-directed mutagenesis using the QuikChange™ Site-Directed Mutagenesis Kit (Agilent Technologies, Inc., Santa Clara, Calif., USA). All plasmid inserts were verified by DNA sequencing. All HSP70 and DnaK variants were produced with a N-terminal His6-tag in the E. coli BL21 Star (DE3) strain (Invitrogen catalog number C6010-03). The resulting strains were grown at 37° C. in LB medium containing 50 μg/mL of carbenicillin (Sigma-Aldrich Co., St. Louis, Mo., USA). At an OD600 about 0.3 to about 0.5, protein expression was induced with 0.5 mM isopropyl-β-D-thiogalactopyranoside (IPTG), and cells were subsequently grown at 25° C. for about 16 h. Cells were collected by centrifugation and resuspended in the Bugbuster® Master Mix (EMD Millipore Chemicals catalog number 71456-4), supplemented with protease inhibitors, 1 mM diethiothreitol (DTT) and 20 mM imidazole. The His6-tagged fusion proteins were isolated on Ni^2+-chelating resins (Ni-NTA Superflow, Qiagen catalog number 30410) by standard procedures. When necessary, size-exclusion chromatography on a Superdex® 200 or a Superose® 6 10/300 GL columns (GE Healthcare) analytical column pre-equilibrated with 1× Dulbecco's Phosphate Buffered Saline (DPBS—Invitrogen 14190-136), 1 mM Tris-HCl (pH 7.4) or 10 mM Tris-HCl (pH 7) was used as the final purification step. The purified DnaK proteins were dialyzed thoroughly against 1× DPBS with 5 mM DTT at 4° C., for crystallization trials involving the small molecule inhibitor PET-16. For isothermal titration calorimetry studies, all HSP70 and DnaK variants were dialyzed extensively against the buffers as noted below under the section entitled “Isothermal Titration calorimetry Studies”. The dialyzed proteins were subsequently microcentrifugated at 15,000×g for 5 min at 4° C. and aliquots of the soluble proteins were stored at −80° C.
(§1) All ITC experiments were performed using a MicroCal VP-ITC isothermal titration calorimeter (MicroCal). Both full-length HSP70 and DnaK proteins and DnaK (aa 393-507) proteins were prepared in 1 mM Tris-HCl (pH 7.4) buffer containing 3% dimethylsulfoxide (DMSO). The HSP70 (aa 386-616) protein was prepared in buffer containing 3% DMSO and 10 mM Tris-HCl, pH 7. The syringe was loaded with purified protein in either 1 mM Tris-HCl (pH 7.4) buffer containing 3% DMSO or 10 mM Tris-HCl (pH 7) buffer containing 3% DMSO. The sample cell of the calorimeter was loaded with PES, PET-16 or NRLLLTG (SEQ ID NO: 7) prepared in the same buffer. All solutions were degassed for 5 min.
The titrations involving the full-length purified proteins were performed at 25° C. with injection volumes of 12 μL and a spacing of 300 s. The titrations involving the purified HSP70 (aa 386-616) and DnaK (aa 393-507) were performed at 42° C. with injection volumes of 12 μL and a spacing of 300 s. Heat from the pre-injection was not used during fitting. The data were fit using a one-site binding model available in the Origin® ITC data analysis software (MicroCal Origin® V5.0, MicroCal Software, Northampton, Mass.). Error values obtained from the MicroCal Origin® V5.0 software were averaged and reported. […]

ATP-HSP70 (WT) = target: T2, ATP-HSP70 (WT) (Homo sapiens, UniProt P0DMV8, E110D); assay: ITC binding to ATP-bound full-length HSP70; settings: wild-type full-length ATP-bound HSP70
T2 construct: Full-length recombinant proteins of HSP70 (aa 1-641) as well as DnaK (aa 1-638); His6 (N); made in house; host or cells: E. coli BL21 Star (DE3)
T2 sequence (P0DMV8 whole entry E110D, the tested form may be a part): as above
Text: The human stress-inducible HSP70 (residues 1-641 or 386-616 of SEQ ID NO: 2) and E. coli DnaK (residues 1-638, 389-607, or 393-507 of SEQ ID NO: 4) were cloned into the pET25 vector (EMD Millipore Chemicals, Inc., Billerica, Mass., USA) between the NdeI and XhoI restriction sites. The full-length HSP70 and DnaK mutants were constructed by PCR-based site-directed mutagenesis using the QuikChange™ Site-Directed Mutagenesis Kit (Agilent Technologies, Inc., Santa Clara, Calif., USA). All plasmid inserts were verified by DNA sequencing. All HSP70 and DnaK variants were produced with a N-terminal His6-tag in the E. coli BL21 Star (DE3) strain (Invitrogen catalog number C6010-03). The resulting strains were grown at 37° C. in LB medium containing 50 μg/mL of carbenicillin (Sigma-Aldrich Co., St. Louis, Mo., USA). At an OD600 about 0.3 to about 0.5, protein expression was induced with 0.5 mM isopropyl-β-D-thiogalactopyranoside (IPTG), and cells were subsequently grown at 25° C. for about 16 h. Cells were collected by centrifugation and resuspended in the Bugbuster® Master Mix (EMD Millipore Chemicals catalog number 71456-4), supplemented with protease inhibitors, 1 mM diethiothreitol (DTT) and 20 mM imidazole. The His6-tagged fusion proteins were isolated on Ni^2+-chelating resins (Ni-NTA Superflow, Qiagen catalog number 30410) by standard procedures. When necessary, size-exclusion chromatography on a Superdex® 200 or a Superose® 6 10/300 GL columns (GE Healthcare) analytical column pre-equilibrated with 1× Dulbecco's Phosphate Buffered Saline (DPBS—Invitrogen 14190-136), 1 mM Tris-HCl (pH 7.4) or 10 mM Tris-HCl (pH 7) was used as the final purification step. The purified DnaK proteins were dialyzed thoroughly against 1× DPBS with 5 mM DTT at 4° C., for crystallization trials involving the small molecule inhibitor PET-16. For isothermal titration calorimetry studies, all HSP70 and DnaK variants were dialyzed extensively against the buffers as noted below under the section entitled “Isothermal Titration calorimetry Studies”. […]

DnaK SBD = target: T3, DnaK SBD (Escherichia coli, UniProt P0A6Y8); assay: ITC binding to DnaK SBD; design: species or system E. coli; settings: in words
T3 construct: The titrations involving the purified HSP70 (aa 386-616) and DnaK (aa 393-507) were performed at 42° C; His6 (N); made in house; host or cells: E. coli BL21 Star (DE3)
T3 sequence (P0A6Y8 393-507): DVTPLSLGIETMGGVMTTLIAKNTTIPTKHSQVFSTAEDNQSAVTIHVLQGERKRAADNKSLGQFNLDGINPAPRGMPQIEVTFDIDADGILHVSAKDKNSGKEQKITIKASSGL
Procedure: as §1
The titrations involving the full-length purified proteins were performed at 25° C. with injection volumes of 12 μL and a spacing of 300 s. The titrations involving the purified HSP70 (aa 386-616) and DnaK (aa 393-507) were performed at 42° C. with injection volumes of 12 μL and a spacing of 300 s. Heat from the pre-injection was not used during fitting. The data were fit using a one-site binding model available in the Origin® ITC data analysis software (MicroCal Origin® V5.0, MicroCal Software, Northampton, Mass.). Error values obtained from the MicroCal Origin® V5.0 software were averaged and reported.

E. coli DH5α = assay: Growth of E. coli DH5α at 43° C.; assay type: cell-based; settings: 6 h at 43° C.
Procedure: FIGS. 2A-2D illustrate the cytotoxicity of PET-16 to human tumor cells and its inhibition on E. coli growth. FIG. 2A is a line graph with data obtained from MTT assays of human melanoma cell lines treated with the indicated concentrations of PES or PET-16 for 72 h. The corresponding cell survival is normalized to vehicle (DMSO) treatment. Average and standard deviation (s.d.) from three independent experiments are shown. FIG. 2B are bar graphs of human melanoma (A875) cells and nontransformed human (IMR90) fibroblasts that were treated with DMSO, 10 μM PES or 10 μM PET-16 for 24 h. […] FIG. 2C is a line graph illustrating the growth of E. coli DH5α treated with different concentrations of PES or PET-16 for 6 h at 43° C. Error bars represent the s.d. of four independent experiments. FIG. 2D is a bar graph illustrating the growth of E. coli DH5α treated with DMSO, 30 μM PET-16 or 30 μM TPP for 6 h at 43° C. Error bars represent the s.d. of four independent experiments.
FIGS. 9A-9H illustrate that PET-16 binds directly to ADP-bound HSP70 and is cytotoxic to human tumor cells. FIGS. 9A-9C are ITC assays of the interaction of PET-3C with purified human HSP70-ADP (A), human HSP70-ATP (B) and DnaK-ADP (C) proteins. The data are representative of three independent experiments. FIG. 9D is a line graph of an MTT assay of the human melanoma cell line 1205 Lu treated with the indicated concentrations of PET-16 (---) or PET-3C (-) for 72 h. The corresponding cell survival is normalized to the DMSO-treatment. Average and standard deviation (s.d.) from three independent experiments are shown. FIG. 9E is a line graph illustrating the growth of E. coli DH5α strain treated with different concentrations of PET-16 (black) or PET-3C (gray) for 6 h at 43° C. Error bars represent the s.d. of four independent experiments. FIG. 9F is a bar graph illustrating the growth of E. coli DH5α treated with DMSO, 30 μM PET-16, 30 μM PET-3C or 30 μM TPP for 6 h at 43° C. Error bars represent the s.d. of four independent experiments. […]

tumor cells = assay: Cytotoxic effect on tumor cells; assay type: cell-based; settings: in words
Text: FIGS. 1A to 1G provide the PET-16 and analogs thereof. FIGS. 1A-1C provide the chemical structures of PES, Biotin-PES, and PES-Cl, respectively. The chemical names and the major functional groups are indicated. […] The chemical names are indicated. FIGS. 1E-1G are the chemical structures of PET-16, PET-3C and PET-DR, respectively. The chemical names and the major functional groups are indicated.

HSP70 (aa 386-616) = target: T4, HSP70 (aa 386-616) (Homo sapiens, UniProt P0DMV8); assay: ITC binding to C-terminal domain of HSP70; settings: in words
T4 construct: His6 (N); made in house; host or cells: E. coli BL21 Star (DE3)
T4 sequence (P0DMV8 386-616): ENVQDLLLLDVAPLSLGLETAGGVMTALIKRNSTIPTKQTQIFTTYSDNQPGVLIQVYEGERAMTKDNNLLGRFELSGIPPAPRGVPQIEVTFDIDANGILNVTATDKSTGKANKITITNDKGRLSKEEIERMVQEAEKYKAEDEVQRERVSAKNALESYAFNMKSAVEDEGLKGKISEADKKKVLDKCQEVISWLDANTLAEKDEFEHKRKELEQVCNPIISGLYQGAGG
Text: The human stress-inducible HSP70 (residues 1-641 or 386-616 of SEQ ID NO: 2) and E. coli DnaK (residues 1-638, 389-607, or 393-507 of SEQ ID NO: 4) were cloned into the pET25 vector (EMD Millipore Chemicals, Inc., Billerica, Mass., USA) between the NdeI and XhoI restriction sites. The full-length HSP70 and DnaK mutants were constructed by PCR-based site-directed mutagenesis using the QuikChange™ Site-Directed Mutagenesis Kit (Agilent Technologies, Inc., Santa Clara, Calif., USA). All plasmid inserts were verified by DNA sequencing. All HSP70 and DnaK variants were produced with a N-terminal His6-tag in the E. coli BL21 Star (DE3) strain (Invitrogen catalog number C6010-03). The resulting strains were grown at 37° C. in LB medium containing 50 μg/mL of carbenicillin (Sigma-Aldrich Co., St. Louis, Mo., USA). At an OD600 about 0.3 to about 0.5, protein expression was induced with 0.5 mM isopropyl-β-D-thiogalactopyranoside (IPTG), and cells were subsequently grown at 25° C. for about 16 h. Cells were collected by centrifugation and resuspended in the Bugbuster® Master Mix (EMD Millipore Chemicals catalog number 71456-4), supplemented with protease inhibitors, 1 mM diethiothreitol (DTT) and 20 mM imidazole. The His6-tagged fusion proteins were isolated on Ni^2+-chelating resins (Ni-NTA Superflow, Qiagen catalog number 30410) by standard procedures. […]

2-(3-chlorophenyl) ethynesulfonamide [PES-Cl, reference compound]
synergy with PLX4032 (Vemurafenib) [1]: did not synergize

CC(C)C[C@H](NC(=O)[C@H](CC(C)C)NC(=O)[C@H](CCCNC(=N)N)NC(=O)[C@@H](N)CC(N)=O)C(=O)N[C@@H](CC(C)C)C(=O)N[C@H](C(=O)NCC(=O)O)[C@@H](C)O [NRLLLTG, reference compound]
Kd (ADP-HSP70 (WT, aa 1-641)): ~10 µM and 10 µM
Kd (ATP-HSP70 (WT)): 1250 ± 15 µM

c1ccc(P(c2ccccc2)c2ccccc2)cc1 [TPP, triphenylphosphine]
binding to DnaK SBD (DnaK SBD): does not bind
effect on growth of E. coli (E. coli DH5α): no negative effect
cytotoxicity for tumor cells (tumor cells): little discernible effect
binding to HSP70 SBD (HSP70 (aa 386-616)): does not bind
